Reference: patent US4477456A (priority 1982, dated 1984)

Legend:
[1] = tested on: characteristic stretching or writhing syndrome induced by phenylquinone; assay: animal or person; type: in vivo, female white mice; settings: for ED50: Mus musculus, po, 0.5 h, read-out: Effect ED50, Oral PQW
[2] = tested on: Straub tail induced by morphine; assay: narcotic antagonist test: prevention of Straub tail induced by morphine sulfate; type: in vivo, Female CF1 S mice; settings: for ED50: Mus musculus, sc, subcutaneous, challenge 30 mg/kg morphine sulfate i.p., read-out: Effect ED50, Subcutaneous Anti-Straub Tail
[3] = tested on: anorexigenic effect (milk spots consumed); assay: animal or person; type: in vivo, Female CF1 mice; settings: Mus musculus, po, read-out: Anorexigenic Effect, Effective Dose
[4] = tested on: Straub tail induced by morphine; settings: known narcotic antagonists, Blumberg et al.; cited from earlier work

Q: With `OCC1CC2CCC13CN(CC1CC1)CCC31c3cccc(O)c3OC21` (single isomer, unassigned) [Example 9, 3-cyclopropylmethyl-5-hydroxymethyl-1,2,3,4,5,6,7,7a-octahydro-4a,7-ethanobenzofuro[3,2-e]isoquinolin-9-ol] as the compound, how does the ED50 [1] read?
A: The ED50 was 0.28 mg/kg.

Q: What about the “analgesic potency compared with morphine” value ([1]; mouse, in vivo) of the same compound?
A: The value was “several times greater potency than morphine”.

Q: What does the source list for `CCCN1CCC23c4cccc(OC)c4OC2C2CCC3(CC2)C1` (stereo not shown) [Example 3, 9-Methoxy-3-propyl-1,2,3,4,5,6,7,7a-octahydro-4a,7-ethanobenzofuro[3,2-e]isoquinoline]?
A: ED50 [1]: > 135 mg/kg; ED50 [2]: 0.19 mg/kg

Q: With `Oc1cccc2c1OC1C3CCC4(CC3)CN(CC3CC3)CCC214` (stereo not shown) [Example 6, 3-Cyclopropylmethyl-1,2,3,4,5,6,7,7a-octahydro-4a,7-ethanobenzofuro[3,2-e]isoquinolin-9-ol] as the compound, how does the ED50 [1] read?
A: The ED50 was 4.4 mg/kg.

Q: What about the ED50 [2] of the same compound?
A: Its ED50 is 0.005 mg/kg.

Q: What about the minimal effective dose [3] of the same compound?
A: The minimal effective dose was 46 mg/kg.

Q: Which minimal effective dose [3] does the source give for `C=CCN1CC[C@]23c4c5ccc(O)c4O[C@H]2C(=O)CC[C@@]3(O)[C@H]1C5` [Naloxone, reference compound] here?
A: Its minimal effective dose is 4.8 mg/kg.

Q: What about the “prevention of the induction of Straub tail by morphine” value [4] of the same compound?
A: The value was “prevent the induction of Straub tail in mice”.

Q: With `CC(O)C1CC2C=CC13CN(CC1CC1)CCC31c3cccc(O)c3OC21` (stereo not shown) [Example 8, 3-Cyclopropylmethyl-5-(1-hydroxyethyl)-1,2,3,4,5,6,7,7a-octahydro-4a,7-ethenobenzofuro[3,2-e]isoquinolin-9-ol] as the compound, how does the ED50 [1] read?
A: Its ED50 is 0.51 mg/kg.

Q: And the ED50 [2]?
A: Its ED50 is 0.024 mg/kg.

Q: Which “prevention of the induction of Straub tail by morphine” value [4] does the source give for `C=CCN1CC[C@]23c4c5ccc(O)c4O[C@H]2[C@@H](O)C=C[C@H]3[C@H]1C5` [Nalorphine] here?
A: Its value is “prevent the induction of Straub tail in mice”.

Q: Which ED50 [1] does the source give for `COc1cccc2c1OC1C3CCC4(CC3)CN(C)CCC214` (stereo not shown) [Example 1, 9-methoxy-3-methyl-1,2,3,4,5,6,7,7a-octahydro-4a,7-ethanobenzofuro[3,2-e]isoquinoline] here?
A: The ED50 was 20.5 mg/kg.

Q: What about the ED50 [2] of the same compound?
A: Its ED50 is greater than 18 mg/kg.

Q: What about the minimal effective dose [3] of the same compound?
A: Its minimal effective dose is 20 mg/kg.

Q: Which results are given for `CC(C)=CCN1CCC2(C)c3cc(O)ccc3CC1C2C` (stereo not shown) [Pentazocine, reference compound]?
A: ED50 [1]: 56 mg/kg; ED50 [2]: 4 mg/kg

Q: Which ED50 [1] does the source give for `CC(C)(C)C(C)(O)C1CC2CCC13CN(CC1CC1)CCC31c3cccc(O)c3OC21` (single isomer, unassigned) [Example 11, 3-Cyclopropylmethyl-5-(2-hydroxy-3,3-dimethyl-2-butyl)-1,2,3,4,5,6,7,7a-octahydro-4a,7-ethanobenzofuro[3,2-e]isoquinolin-9-ol] here?
A: The ED50 was 5.2 mg/kg.

Q: For `CC(O)C1CC2CCC13CN(CC1CC1)CCC31c3cccc(O)c3OC21` (stereo not shown) [Example 7, 3-Cyclopropylmethyl-5-(1-hydroxyethyl)-1,2,3,4,5,6,7,7a-octahydro-4a,7-ethanobenzofuro[3,2-e]isoquinolin-9-ol], which ED50 [1] is on record?
A: Its ED50 is 0.78 mg/kg.

Q: What about the ED50 [2] of the same compound?
A: The ED50 was 0.08 mg/kg.

Q: Which ED50 [1] does the source give for `CN1CC[C@]23c4c5ccc(O)c4O[C@H]2[C@@H](O)C=C[C@H]3[C@H]1C5` [Morphine, reference compound] here?
A: The ED50 was 3 mg/kg.

Q: Which ED50 [1] does the source give for `CN1CCC23c4cccc(O)c4OC2C2CCC3(CC2)C1` (stereo not shown) [Example 2, 3-methyl-1,2,3,4,5,6,7,7a-octahydro-4a,7-ethanobenzofuro[3,2-e]isoquinolin-9-ol] here?
A: The ED50 was 12 mg/kg.

Q: What about the ED50 [2] of the same compound?
A: The ED50 was 0.05 mg/kg.

Q: What about the minimal effective dose [3] of the same compound?
A: The minimal effective dose was greater than 324 mg/kg.

Q: For `CCCN1CCC23c4cccc(O)c4OC2C2CCC3(CC2)C1.Cl` (stereo not shown) [Example 4, 3-propyl-1,2,3,4,5,6,7,7a-octahydro-4a,7-ethanobenzofuro[3,2-e]isoquinolin-9-ol hydrochloride], which ED50 [1] is on record?
A: The ED50 was 99 mg/kg.

Q: What about the ED50 [2] of the same compound?
A: Its ED50 is 0.009 mg/kg.

Q: And the “narcotic antagonism capability / antagonist character” value ([2]; Straub tail antagonism, in words)?
A: The value was “pure narcotic antagonists”.

Q: What about the minimal effective dose [3] of the same compound?
A: Its minimal effective dose is 7 mg/kg.
